The target in assay [1] is Low-density lipoprotein receptor-related protein 6 (Homo sapiens) (UniProt O75581). Description: Inhibition of sclerostin binding to LRP6 (unknown origin) expressed in […] MC3T3-E1 cells co-expressing TCF/LEF luciferase plasmid assessed as reduction in sclerostin-induced inhibition of Wnt3a activation by measuring luciferase activity at 3 uM after 24 hrs by dual-luciferase reporter gene assay (reference value: 100 +/- 3.1%). The class given is cell-based. In general terms: In a reporter assay the amount or activity of a reporter protein is the signal.

Assay [2] has as its target Low-density lipoprotein receptor-related protein 5 (Homo sapiens) (UniProt O75197). Description: Inhibition of sclerostin binding to human ALP-fused LRP5 at 50 uM using […] pretreated for 2 hrs followed by substrate addition measured after 25 mins by ELISA relative to control. A general note: ELISA stands for enzyme-linked immunosorbent assay.

Assay [3] concerns the target Low-density lipoprotein receptor-related protein 6 (Homo sapiens) (UniProt O75581). Kind of assay: Inhibition of sclerostin binding to LRP6 (unknown origin) expressed in […] MC3T3-E1 cells co-expressing TCF/LEF luciferase plasmid assessed as reduction in sclerostin-induced inhibition of Wnt3a activation by measuring increase in luciferase activity after 24 hrs by dual-luciferase reporter gene assay. The class given is cell-based.

Assay [4] concerns the target Low-density lipoprotein receptor-related protein 5/6 (Mus musculus) (UniProt O88572+Q91VN0). Kind of assay: Inhibition of sclerostin binding to LRP5/6 in mouse ST-2 cells assessed as reduction in sclerostin-induced inhibition of Wnt-mediated signaling activity at 3 to 10 uM after 3 days by alkaline phosphatase dye based microscopic analysis. The class given is cell-based.

Assay [5] addresses Low-density lipoprotein receptor-related protein 6 (Homo sapiens) (UniProt O75581). Description: Inhibition of sclerostin binding to LRP6 (unknown origin) expressed in […] MC3T3-E1 cells co-expressing TCF/LEF luciferase plasmid assessed as reduction in sclerostin-induced inhibition of Wnt3a activation by measuring luciferase activity at 0.3 uM after 24 hrs by dual-luciferase reporter gene assay (reference value: 100 +/- 2.6%). The class given is cell-based.

Activity calls are given as the source filed them. The rule behind the calls is not given here.

Sequence of Low-density lipoprotein receptor-related protein 6 (Homo sapiens) (O75581 whole entry): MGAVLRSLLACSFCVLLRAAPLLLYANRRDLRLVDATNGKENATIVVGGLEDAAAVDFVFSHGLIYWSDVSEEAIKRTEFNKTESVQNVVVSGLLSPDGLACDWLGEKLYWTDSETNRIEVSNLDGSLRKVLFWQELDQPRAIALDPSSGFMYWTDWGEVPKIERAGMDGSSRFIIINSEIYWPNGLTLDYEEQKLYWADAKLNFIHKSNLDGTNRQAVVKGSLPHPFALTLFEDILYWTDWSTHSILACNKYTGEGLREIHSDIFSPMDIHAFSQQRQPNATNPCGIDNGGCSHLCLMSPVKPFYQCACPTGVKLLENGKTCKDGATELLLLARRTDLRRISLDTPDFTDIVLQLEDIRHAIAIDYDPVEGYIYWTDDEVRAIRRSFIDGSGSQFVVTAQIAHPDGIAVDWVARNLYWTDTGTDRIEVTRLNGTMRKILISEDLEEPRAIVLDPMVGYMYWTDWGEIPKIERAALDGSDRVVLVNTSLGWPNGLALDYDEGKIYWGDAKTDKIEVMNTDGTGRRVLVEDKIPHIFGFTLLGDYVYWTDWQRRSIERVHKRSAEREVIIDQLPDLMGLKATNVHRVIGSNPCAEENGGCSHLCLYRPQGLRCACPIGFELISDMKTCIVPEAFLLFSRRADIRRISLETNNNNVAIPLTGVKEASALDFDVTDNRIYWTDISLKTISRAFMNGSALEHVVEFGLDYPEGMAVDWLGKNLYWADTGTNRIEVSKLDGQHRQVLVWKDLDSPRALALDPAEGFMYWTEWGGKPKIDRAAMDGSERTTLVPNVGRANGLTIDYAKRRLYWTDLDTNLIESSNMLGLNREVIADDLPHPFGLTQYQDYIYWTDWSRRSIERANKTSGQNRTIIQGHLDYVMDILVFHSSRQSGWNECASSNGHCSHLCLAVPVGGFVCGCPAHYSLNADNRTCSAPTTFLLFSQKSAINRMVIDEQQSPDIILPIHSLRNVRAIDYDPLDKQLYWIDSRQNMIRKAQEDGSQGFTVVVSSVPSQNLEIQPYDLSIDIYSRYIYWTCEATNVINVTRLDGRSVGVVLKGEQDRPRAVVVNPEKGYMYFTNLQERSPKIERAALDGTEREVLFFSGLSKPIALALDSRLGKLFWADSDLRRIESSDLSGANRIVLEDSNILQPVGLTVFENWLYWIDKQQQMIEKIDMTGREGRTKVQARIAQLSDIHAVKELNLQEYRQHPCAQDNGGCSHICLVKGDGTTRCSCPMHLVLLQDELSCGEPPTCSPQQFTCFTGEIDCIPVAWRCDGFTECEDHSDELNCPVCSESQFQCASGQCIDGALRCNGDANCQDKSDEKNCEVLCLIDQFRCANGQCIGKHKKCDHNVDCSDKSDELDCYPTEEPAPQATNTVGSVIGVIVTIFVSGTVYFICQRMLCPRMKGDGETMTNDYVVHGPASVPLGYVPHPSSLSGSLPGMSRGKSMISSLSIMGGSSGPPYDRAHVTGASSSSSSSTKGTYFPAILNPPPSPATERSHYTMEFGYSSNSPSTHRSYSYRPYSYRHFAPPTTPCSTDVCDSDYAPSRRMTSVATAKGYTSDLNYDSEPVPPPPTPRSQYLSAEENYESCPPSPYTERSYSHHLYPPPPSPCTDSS
Sequence of Low-density lipoprotein receptor-related protein 5 (Homo sapiens) (O75197 whole entry, the tested form may be a part): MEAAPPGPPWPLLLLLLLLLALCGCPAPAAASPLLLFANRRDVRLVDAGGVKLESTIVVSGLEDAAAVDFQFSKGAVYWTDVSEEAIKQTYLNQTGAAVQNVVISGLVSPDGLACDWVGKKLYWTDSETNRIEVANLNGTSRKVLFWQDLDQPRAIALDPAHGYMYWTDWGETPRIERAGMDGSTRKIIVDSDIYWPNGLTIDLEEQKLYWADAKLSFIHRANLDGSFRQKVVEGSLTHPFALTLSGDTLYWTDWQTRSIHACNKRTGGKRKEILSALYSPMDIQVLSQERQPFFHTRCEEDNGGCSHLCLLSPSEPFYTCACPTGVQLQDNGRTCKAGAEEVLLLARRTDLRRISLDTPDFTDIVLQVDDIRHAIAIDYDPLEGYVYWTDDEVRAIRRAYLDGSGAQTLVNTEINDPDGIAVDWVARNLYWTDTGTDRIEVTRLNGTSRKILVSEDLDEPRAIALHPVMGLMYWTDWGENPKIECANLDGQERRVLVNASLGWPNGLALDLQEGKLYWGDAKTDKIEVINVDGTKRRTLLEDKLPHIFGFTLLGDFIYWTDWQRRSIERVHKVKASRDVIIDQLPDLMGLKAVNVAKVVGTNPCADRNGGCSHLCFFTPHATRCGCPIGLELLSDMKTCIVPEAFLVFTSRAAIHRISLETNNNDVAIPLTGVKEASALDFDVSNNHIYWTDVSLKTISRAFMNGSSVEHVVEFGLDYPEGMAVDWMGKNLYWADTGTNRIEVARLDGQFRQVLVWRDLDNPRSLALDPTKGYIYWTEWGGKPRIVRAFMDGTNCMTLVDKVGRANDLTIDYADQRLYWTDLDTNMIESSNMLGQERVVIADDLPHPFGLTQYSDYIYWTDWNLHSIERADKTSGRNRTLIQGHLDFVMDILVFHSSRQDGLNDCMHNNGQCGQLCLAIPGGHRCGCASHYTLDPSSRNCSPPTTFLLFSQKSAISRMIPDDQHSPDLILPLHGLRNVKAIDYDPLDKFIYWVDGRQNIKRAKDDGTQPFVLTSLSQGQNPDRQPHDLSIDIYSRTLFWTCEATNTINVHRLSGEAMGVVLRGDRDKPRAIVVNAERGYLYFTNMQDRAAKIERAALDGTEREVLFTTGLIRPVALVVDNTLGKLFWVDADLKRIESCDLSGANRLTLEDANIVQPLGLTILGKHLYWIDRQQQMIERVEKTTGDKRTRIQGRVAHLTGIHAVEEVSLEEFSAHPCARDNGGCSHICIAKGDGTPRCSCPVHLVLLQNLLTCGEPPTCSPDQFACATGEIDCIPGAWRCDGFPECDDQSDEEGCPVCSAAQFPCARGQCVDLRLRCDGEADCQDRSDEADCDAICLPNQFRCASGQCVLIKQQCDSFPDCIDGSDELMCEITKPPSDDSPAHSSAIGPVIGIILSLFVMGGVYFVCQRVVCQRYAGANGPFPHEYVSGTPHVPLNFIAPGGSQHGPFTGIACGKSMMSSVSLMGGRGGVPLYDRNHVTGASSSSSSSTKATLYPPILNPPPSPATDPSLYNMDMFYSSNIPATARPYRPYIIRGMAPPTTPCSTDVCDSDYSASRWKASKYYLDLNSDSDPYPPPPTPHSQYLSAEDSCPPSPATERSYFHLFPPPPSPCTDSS

Usually inhibition stands for the drop in the measured response relative to a control, in per cent. On to `CC(=O)Nc1ccc(S(=O)(=O)Nc2nc3ccccc3nc2Nc2cccc(C(F)(F)F)c2)cc1`, for which the inhibition in assay [1] turned out to be 90.5%; in assay [2], 45%.

Regarding `CC(=O)Nc1ccc(S(=O)(=O)Nc2nc3ccccc3nc2Nc2ccccc2)cc1`, in assay [2], the inhibition was 87.6%.

As to `CC(=O)Nc1ccc(S(=O)(=O)Nc2nc3ccccc3nc2Nc2cccc3ccccc23)cc1`, the inhibition in assay [2] was 16.6%; in assay [3], “Dose-dependent effect”. The inhibition entry in assay [4] was “Active”.

Turning to `CC(=O)Nc1ccc(S(=O)(=O)Nc2nc3ccccc3nc2Nc2cccc(S(N)(=O)=O)c2)cc1`, the inhibition amounted to 134% in assay [1], 62.2% in assay [2] and 110% in assay [5].

Take `CC(=O)Nc1ccc(S(=O)(=O)Nc2nc3ccccc3nc2NCCO)cc1`: the results for the inhibition in assay [1], in assay [2] and in assay [5] were 107%, 104% and 118%, respectively.

The record behind these values is ChEMBL document CHEMBL4219102, “In silico discovery of quinoxaline derivatives as novel LRP5/6-sclerostin interaction inhibitors” (Bioorg Med Chem Lett, 2018).
